Tests used:
GLP-1 = conditions: Shima et al., Acta Endocrinologica 1990; cited from earlier work
[1] = Body weight-reducing test using DIO mice (2), Example 6; type: in vivo, mouse; conditions: for Body weight gain after 12 days / Body weight gain after 13 days: high fat diet-fed C57BL/6J mice, mean ± SEM, n = 9; for fat mass (g) as compared with the control group / lean mass (g) in comparison with the control group / body weights as compared with the control group: sweetener 5 w/w % combined with Compound A′ 10 mg/100 g in-feed; for fat mass (g) as compared with the control group / lean mass (g) in comparison with the control group: body composition 15 days after dosing; for body weights as compared with the control group: each of days 2 to 13 (or day 12) after dosing
Experimental: Testing was carried out in the same manner as (1) of Example 3 above. High fat diet-fed, male C57BL/6J mice housed until age 14 to 22 weeks were used in the test.
The study animals were used in the test after first grouping according to body weight and blood sugar level.
The animals were administered test DPP4 inhibitor and test sweetener in-feed for up to 15 days.
Body weights and food intake were measured over time after the start of administration of the test substances. Testing and analysis of measurement results were carried out in the same manner as (1) of Example 3 above.
In addition, in the case body weight reducing effect was observed, body composition was measured in the same manner as (1) of Example 3 above.
D-mannitol (Wako Pure Chemical Industries, Ltd.), melibiose (Wako Pure Chemical Industries, Ltd.) or acesulfame K (Wako Pure Chemical Industries, Ltd.) was used as sweetener and each was administered in-feed at 5 w/w %. In addition, Compound A′ was administered as DPP4 inhibitor in-feed at 10 mg/100 g.
Body weight reducing-effect was tested for the cases of combined use of each of these sweeteners and DPP4 inhibitor in accordance with the method described in (1) above (n=9 animals per group).

active GLP-1 in plasma [2] = test: GLP-1 secretion-stimulating action by combined use of DPP4 inhibitor and sweetener (3), Example 5; type: in vivo, mouse; conditions: C57BL/6J mice, mean ± SEM, n = 5
Experimental: Purified water was administered orally (10 mL/kg) as a control.
D-mannitol (Wako Pure Chemical Industries, Ltd.) at 3 g/kg, melibiose (Wako Pure Chemical Industries, Ltd.) at 6 g/kg or acesulfame K (Wako Pure Chemical Industries, Ltd.) at 3 g/kg was used as sweetener and administered orally (10 mL/kg). Purified water was administered orally (10 mL/kg) as a control.

active GLP-1 in plasma [3] = test: GLP-1 secretion-stimulating action by combined use of DPP4 inhibitor and sweetener (2), Example 4; type: in vivo, mouse; conditions: 1 hour after dosing, relative to 100 for Compound A′ and fructooligosaccharide 6 g/kg, C57BL/6J mice
Experimental: Male C57BL/6J mice (Clea Japan, Inc.) (7-week-old at time of use) were used in the test.
These study animals were used in the test after first fasting starting on the night prior to the test and then grouping according to body weight. The animals were orally administered test DPP4 inhibitor (or purified water as a control) (10 mL/kg). At 30 minutes after administration, the animals were then orally administered (10 mL/kg) a solution of test sweetener (or purified water as a control) followed by collecting blood samples at 0, 30, 60, 180 and 300 minutes after administration. These samples were then measured for concentrations of active GLP-1 in plasma.
Measurement of plasma active GLP-1 concentrations and analysis and testing of the measurement results were carried out in the same manner as (1) of Example 1 above.
Fructooligosaccharide (Meiji Seika Kaisha Ltd.), kestose (Meiji Seika Kaisha Ltd., GF2), raffinose (Wako Pure Chemical Industries, Ltd.), melibiose (Wako Pure Chemical Industries, Ltd.), xylooligosaccharide (Suntory Ltd.), xylose (Wako Pure Chemical Industries, Ltd.), xylitol (Wako Pure Chemical Industries, Ltd.), sorbitol (Wako Pure Chemical Industries, Ltd.), D-mannitol (Wako Pure Chemical Industries, Ltd.), erythritol (Wako Pure Chemical Industries, Ltd.), maltitol (Hayashibara Biochemical Laboratories, Inc.), sucralose (San-Ei Gen F.F.I., Inc.) or acesulfame K (Wako Pure Chemical Industries, Ltd.) was used as sweetener and administered orally (10 mL/kg) at 6 g/kg, 3 g/kg or 1 g/kg.
In addition, (2S)-2-cyano-1-[trans-4-(dimethylaminocarbonyl)cyclohexylamino]acetylpyrrolidine benzenesulfonate (hereafter referred to as Compound A′) as DPP4 inhibitor (or purified water as a control) was used at 10 mg/kg and administered orally (10 mL/kg).
Blood active GLP-1 level-increasing action was tested for the cases of combined use of DPP4 inhibitor and each type of sweetener in accordance with the method described in (1) above (n=4 to 5 animals per group).
Blood active GLP-1 concentrations (1 hour after dosing) in the groups dosed with both each type of sweetener (6 g/kg, 3 g/kg or 1 g/kg) and Compound A′ (10 mg/kg) were represented as relative values with respect to blood active GLP-1 concentrations (1 hour after dosing) in the group dosed with fructooligosaccharide (6 g/kg) and Compound A′.

[4] = Body weight-reducing test using DIO mice (3), Example 7; type: in vivo, mouse; conditions: for Body weight gain After 8 days / Body weight gain After 15 days: sweetener in feed at 5 w/w % combined with Compound A′ in feed at 10 mg/100 g, high fat diet-fed C57BL/6J mice, mean ± SEM, n = 7
Experimental: Testing was carried out in the same manner as (1) of Example 3 above. High fat diet-fed, male C57BL/6J mice housed until age 16 weeks were used in the test.
The study animals were used in the test after first grouping according to body weight.
The animals were administered test DPP4 inhibitor and test sweetener in-feed for up to 15 days. Body weights and food intake were measured over time after the start of administration of the test substances.
Sorbitol (Wako Pure Chemical Industries, Ltd.) or erythritol (Wako Pure Chemical Industries, Ltd.) was used as sweetener and each was administered in-feed at 5 w/w %. In addition, Compound A′ was administered as DPP4 inhibitor in-feed at 10 mg/100 g. Body weight reducing effect was tested for the cases of combined use of each of these sweeteners and DPP4 inhibitor in accordance with the method described in (1) above (n=7 animals per group).

[5] = Compound A′ alone in feed at 10 mg/100 g
[6] = DPP4 inhibitor 10 mg/kg orally combined with acesulfame K 3 g/kg orally
[7] = sweetener alone 5 w/w % in-feed
[8] = sweetener alone in feed at 5 w/w %
[9] = sweetener in feed at 5 w/w % combined with Compound A′ in feed at 10 mg/100 g
[10] = sweetener 3 g/kg orally combined with Compound A′ 10 mg/kg orally
[11] = sweetener 3 g/kg orally alone (purified water instead of DPP4 inhibitor)
[12] = sweetener 6 g/kg orally combined with Compound A′ 10 mg/kg orally
[13] = sweetener 5 w/w % combined with Compound A′ 10 mg/100 g in-feed
[14] = sweetener alone, separate tests

OC[C@H]1O[C@H](O[C@H]2[C@H](O)[C@@H](O)C(O)O[C@@H]2CO)[C@H](O)[C@@H](O)[C@@H]1O (mixture of isomers) [maltose]
blood GLP-1 levels following administration (GLP-1): blood GLP-1 levels are increased

CN(C)C(=O)[C@H]1CC[C@H](NCC(=O)N2CCC[C@H]2C#N)CC1.O=S(=O)(O)c1ccccc1 (relative stereo) [Compound A′, (2S)-2-cyano-1-[trans-4-(dimethylaminocarbonyl)cyclohexylamino]acetylpyrrolidine benzenesulfonate]
body weight as compared with the control group ([1]; Compound A′ alone 10 mg/100 g in-feed): no changes in body weight as compared with the control group | Body weight gain after 12 days [1, 5]: 0.6 ± 0.1 g | Body weight gain after 13 days [1, 5]: 2.0 ± 0.3 g | Increase in AUC of Plasma active GLP-1 (active GLP-1 in plasma [2]; DPP4 inhibitor 10 mg/kg orally combined with D-mannitol 3 g/kg orally): 170 ± 27 pM·h | Increase in AUC of Plasma active GLP-1 (active GLP-1 in plasma [2]; [6]): 142 ± 11 pM·h | Increase in AUC of Plasma active GLP-1 (active GLP-1 in plasma [2]; DPP4 inhibitor 10 mg/kg orally combined with melibiose 6 g/kg orally): 228 ± 32 pM·h

CC1=CC(=O)NS(=O)(=O)O1 [Acesulfame K, acesulfame potassium]
fat mass (g) as compared with the control group [1]: decreased significantly | lean mass (g) in comparison with the control group [1]: no change in lean mass | body weights as compared with the control group [1]: body weights significantly decreased as compared with the control group | body weight as compared with the control group [1, 7]: no significant differences as compared with the control group | Body weight gain after 12 days [1, 8]: -0.5 ± 0.3 g | Body weight gain after 12 days [1, 9]: -1.0 ± 0.4 g | Plasma active GLP-1 concentration (relative value) (active GLP-1 in plasma [3]; sweetener 1 g/kg orally combined with Compound A′ 10 mg/kg orally): 149 | Plasma active GLP-1 concentration (relative value) (active GLP-1 in plasma [3]; [10]): 377 | Increase in AUC of Plasma active GLP-1 (active GLP-1 in plasma [2]; [11]): 51 ± 1 pM·h

CCC(=O)N1CCN(C2CCC(C)(NCC(=O)N3CCC[C@H]3C#N)CC2)CC1 (stereo partly drawn) [Compound B, (2S)-2-cyano-1-[t-4-(4-propionyl-1-piperazinyl)-1-methyl-r-1-cyclohexylamino]acetyl pyrrolidine]
Increase in AUC of Plasma active GLP-1 (active GLP-1 in plasma [2]; [6]): 153 ± 14 pM·h

O=C[C@H](O)[C@@H](O)[C@@H](O)[C@H](O)CO [D-galactose]
blood GLP-1 levels following administration (GLP-1): blood GLP-1 levels are increased

O=C[C@H](O)[C@@H](O)[C@H](O)[C@H](O)CO [D-glucose]
blood GLP-1 levels following administration (GLP-1): blood GLP-1 levels are increased

OC[C@@H](O)[C@@H](O)[C@H](O)[C@H](O)CO [D-mannitol]
fat mass (g) as compared with the control group [1]: decreased significantly | lean mass (g) in comparison with the control group [1]: no change in lean mass | body weights as compared with the control group [1]: body weights significantly decreased as compared with the control group | body weight as compared with the control group [1, 7]: no significant differences as compared with the control group | Body weight gain after 13 days [1, 8]: 1.1 ± 0.5 g | Body weight gain after 13 days [1, 9]: 0.2 ± 0.7 g | Plasma active GLP-1 concentration (relative value) (active GLP-1 in plasma [3]; [10]): 160 | Plasma active GLP-1 concentration (relative value) (active GLP-1 in plasma [3]; [12]): 742 | Increase in AUC of Plasma active GLP-1 (active GLP-1 in plasma [2]; [11]): 85 ± 1 pM·h

OC[C@@H](O)[C@@H](O)CO [Erythritol, erythritol]
body weights as compared with the control group [4, 13]: decreases in body weights were observed | body weights as compared with the control group [4, 14]: decreases in body weights were not observed | Body weight gain After 8 days [4]: 0.2 ± 0.1 g | Body weight gain After 15 days [4]: 0.9 ± 0.3 g | Plasma active GLP-1 concentration (relative value) (active GLP-1 in plasma [3]; [10]): 147 | Plasma active GLP-1 concentration (relative value) (active GLP-1 in plasma [3]; [12]): 461

OC[C@H]1O[C@@](CO)(OC[C@@]2(O[C@H]3O[C@H](CO)[C@@H](O)[C@H](O)[C@H]3O)O[C@H](CO)[C@@H](O)[C@@H]2O)[C@@H](O)[C@@H]1O [Kestose, glucose-1,2-fructose-1,2-fructose]
Plasma active GLP-1 concentration (relative value) (active GLP-1 in plasma [3]; [12]): 166

O=C[C@H](O)[C@@H](O)[C@H](O)[C@H](O)CO[C@H]1O[C@H](CO)[C@H](O)[C@H](O)[C@H]1O [Melibiose, α-D-galactopyranosyl-(1→6)-D-glucose]
body weights as compared with the control group [1]: body weights significantly decreased as compared with the control group | body weight as compared with the control group [1, 7]: no significant differences as compared with the control group | Body weight gain after 13 days [1, 8]: 2.2 ± 0.2 g | Body weight gain after 13 days [1, 9]: 0.9 ± 0.4 g | Plasma active GLP-1 concentration (relative value) (active GLP-1 in plasma [3]; [12]): 454 | Increase in AUC of Plasma active GLP-1 (active GLP-1 in plasma [2]; sweetener 6 g/kg orally alone (purified water instead of DPP4 inhibitor)): 95 ± 2 pM·h

OC[C@H]1O[C@H](OC[C@H]2O[C@H](O[C@]3(CO)O[C@H](CO)[C@@H](O)[C@@H]3O)[C@H](O)[C@@H](O)[C@@H]2O)[C@H](O)[C@@H](O)[C@H]1O [Raffinose, β-D-fructofuranosyl α-D-galactopyranosyl-(1→6)-α-D-glucopyranoside]
Plasma active GLP-1 concentration (relative value) (active GLP-1 in plasma [3]; [12]): 77

OC[C@@H](O)[C@@H](O)[C@H](O)[C@@H](O)CO [Sorbitol, sorbitol]
body weights as compared with the control group [4, 13]: decreases in body weights were observed | body weights as compared with the control group [4, 14]: decreases in body weights were not observed | Body weight gain After 8 days [4]: -0.7 ± 0.4 g | Body weight gain After 15 days [4]: 0.8 ± 0.3 g | Plasma active GLP-1 concentration (relative value) (active GLP-1 in plasma [3]; [10]): 286 | Plasma active GLP-1 concentration (relative value) (active GLP-1 in plasma [3]; [12]): 863

OC[C@H]1O[C@H](O[C@]2(CCl)O[C@H](CCl)[C@@H](O)[C@@H]2O)[C@H](O)[C@@H](O)[C@H]1Cl [Sucralose, sucralose]
Plasma active GLP-1 concentration (relative value) (active GLP-1 in plasma [3]; [12]): 166

OC[C@H]1O[C@@](CO)(O[C@H]2O[C@H](CO)[C@@H](O)[C@H](O)[C@H]2O)[C@@H](O)[C@@H]1O [sucrose]
blood GLP-1 levels following administration (GLP-1): blood GLP-1 levels are increased
